# Measurements from patent US6784201B2, “Benzothiepines having activity as inhibitors of ileal bile acid transport and taurocholate uptake” (G.D. Searle & Company, priority 1994, dated 2004).
# Structures can show the parent of a compound that is named as a salt. Where two headings read alike, the source gives them in different places.
# Target: T1, human IBAT (Homo sapiens, UniProt Q12908)
# T1 construct: expressed in transfected cells; host or cells: Baby hamster kidney (BHK) cells, clone H14
# T1 sequence (Q12908 1-348): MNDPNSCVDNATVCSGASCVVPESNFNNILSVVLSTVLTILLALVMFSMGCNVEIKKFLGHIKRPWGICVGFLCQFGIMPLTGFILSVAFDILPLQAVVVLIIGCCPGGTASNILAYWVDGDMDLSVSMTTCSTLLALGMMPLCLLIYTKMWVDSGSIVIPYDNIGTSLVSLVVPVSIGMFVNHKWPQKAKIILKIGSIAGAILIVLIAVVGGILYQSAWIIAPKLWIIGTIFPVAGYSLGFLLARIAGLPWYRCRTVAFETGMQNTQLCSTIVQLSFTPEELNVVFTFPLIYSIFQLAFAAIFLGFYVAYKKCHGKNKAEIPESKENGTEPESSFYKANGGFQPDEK
# Experiment: In vitro assay of IBAT-mediated uptake of [14C]-taurocholate (TC) in H14 cells
# Type: cell-based
# Method in brief: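 BHK cells stably expressing human IBAT (H14) were incubated 2 h at 37° C with compound and 3 μM final [14C]-taurocholate in DMEM (4.5 g/L glucose) plus 0.2% fatty acid-free BSA. After cold PBS washes, cell-associated radioactivity was measured by scintillation counting.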
IC50 (read-out: Human TC IC50) [nM],Structure (SMILES),also measured
690,CCCCC1(CCCC)CS(=O)(=O)c2ccc(N(C)C)cc2C(c2cccc(C[N+](C)(C)CC[N+](C)(C)C)c2)C1O (stereo not shown) [Example 1255],
30,CCCCC1(CCCC)CS(=O)(=O)c2ccc([S+](C)C)cc2C(c2ccc(F)cc2)C1O (stereo not shown) [Example 1148],
,"O=S1(=O)CC2(CCCCC2)C2OC2(c2ccccc2)c2ccccc21 (stereo not shown) [Example 58, 8b-Phenyl-1a,2,3,8b-tetrahydrospiro(benzothiepino[4,5-b]oxirene-2,1′-cyclohexane)-4,4-dioxide]",inhibition at 50 µM (50 μM): 20%
4000,CCC1(CC)CS(=O)(=O)c2ccc(N)cc2[C@@H](c2ccccc2)[C@H]1O [Example 287],
28,CCCCCC[N+](CCCCCC)(CCCCCC)CCOCCOCCOc1cccc(C2c3cc(N(C)C)ccc3S(=O)(=O)CC(CCCC)(CCCC)C2O)c1 (stereo not shown) [Example 1279],
38,CCCCC1(CCCC)CS(=O)(=O)c2cc(Br)c(N(C)C)cc2C(c2ccc[nH]2)C1O (stereo not shown) [Example 1228],
700,CCCCC1(CC)CS(=O)(=O)c2ccc(NC(=O)OCc3ccccc3)cc2C(c2ccc(F)cc2)C1O (stereo not shown) [Example 128],
20,CCCCC1(CC)CS(=O)(=O)c2ccc(N(C)C)cc2C(c2cccc(OCCCCOC(C)=O)c2)C1O (stereo not shown) [Example 1134],
250,CCCCC1(CCCC)CS(=O)(=O)c2ccc(OC)cc2C(c2ccc(N(C)C)cc2)C1O (stereo not shown) [Example 1182],
2,C=C(C)C(=O)OCC[N+](CC)(CC)CCOCCOCCOc1cccc(C2c3cc(N(C)C)ccc3S(=O)(=O)CC(CCCC)(CCCC)C2O)c1 (stereo not shown) [Example 1375],
8,CCCCC1(CCCC)CS(=O)(=O)c2ccc(N(C)C)cc2C(c2cccc(OCCOCCOCC[N+](CC)(CC)CCNS(=O)(=O)N(C)C)c2)C1O (stereo not shown) [Example 1363],
170,CCCCC1(CC)CS(=O)(=O)c2ccc(S(C)(=O)=O)cc2C(c2cccc(OC)c2)C1O (stereo not shown) [Example 1175],
10,CCCCC1(CCCC)CS(=O)(=O)c2ccc(N(C)C)cc2C(c2cccc(OCCOCCOCC[N+](CC)(CC)CC(OCC)OCC)c2)C1O (stereo not shown) [Example 1120],
80,CCCCC1(CC)CS(=O)(=O)c2ccc(N3CCOCC3)cc2C(c2ccc(F)cc2)C1O (stereo not shown) [Example 284],
6,CCCCC1(CCCC)CS(=O)(=O)c2ccc(N(C)C)cc2C(c2cccc(OCCOCCOCC[n+]3cccc(C(=O)OC)c3)c2)C1O (stereo not shown) [Example 1094],
1000,CCCCC1(CCCC)CS(=O)(=O)c2ccc(O)cc2C(c2cccc(N(C)C)c2)C1O (stereo not shown) [Example 1192],
26,CCCCC1(CCCC)CS(=O)(=O)c2ccc(N(C)C)cc2C(c2ccc(OCCCCCCCCCCI)cc2)C1O (stereo not shown) [Example 1269],
330,CCCCC1(CCCC)CS(=O)(=O)c2ccc(N(C)C)cc2C(c2ccc(O)c(CN(C)C)c2)C1O (stereo not shown) [Example 1248],
35,CCCCC1(CCCC)CS(=O)(=O)c2ccc(N(C)C)cc2C(c2cccc(C[N+](CC)(CC)CC)c2)C1O (stereo not shown) [Example 1206],
21,CCCCC1(CCCC)CS(=O)(=O)c2ccc(N(C)C)cc2C(c2cccc(OCCOCCOCCI)c2)C1O (stereo not shown) [Example 1136],

IC50 (read-out: Human TC IC50) [nM],Structure (SMILES),also measured
20,CCCCC1(CCCC)CS(=O)(=O)c2ccc(N(C)C)cc2C(c2cccc(OCCOCCOCC[n+]3ccc4c(c3)CCCC4)c2)C1O (stereo not shown) [Example 1132],
140,CCCCC1(CCCC)CS(=O)(=O)c2ccc(N(C)C)cc2C(c2ccc(OS(=O)(=O)C(F)(F)F)cc2)C1O (stereo not shown) [Example 1171],
,"CCCCC1(CCCC)CS(=O)(=O)c2ccc(N(C)C)cc2[C@@H](c2ccc(OCCC[N+]34CCN(CC3)CC4)cc2)[C@H]1O [Example 1407, (4R-cis)-1-[3-[4-[3,3-Dibutyl-7-(dimethylamino)-2,3,4,5-tetrahydro-4-hydroxy-1,1-dioxido-1-benzothiepin-5-yl]phenoxy]propyl]-4-aza-1-azoniabicyclo[2.2.2]octane, 4-methylbenzenesulfonate (Salt)]","IC50 (In Vitro Taurocholate Uptake, Table 10, read-out: Human TC IC50): 3 nM"
18000,CCCC[C@]1(CC)CS(=O)(=O)c2cc(OCCOCCOCC[N+](C)(C)C)ccc2[C@@H](c2ccccc2)[C@H]1O [Example 125],
49,CCCCC1(CCCC)CS(=O)(=O)c2ccc(N(C)C)cc2C(c2ccc(O)c(Cl)c2)C1O (stereo not shown) [Example 1229],
29,CCCCC1(CCCC)CS(=O)(=O)c2ccc(N(C)C)cc2C(c2ccc(OCCCCCCCCCC[N+](C)(C)C)cc2)C1O (stereo not shown) [Example 1146],
29000,CCCCC1(CCCC)CS(=O)(=O)c2ccc(N(C)C)cc2C(c2ccc(OCCC[N+](CC)(CC)CC)cc2)C1O (stereo not shown) [Example 1252],
1,CCCCC1(CCCC)CS(=O)(=O)c2ccc(N(C)C)cc2C(c2ccc(OCCOCC[N+]3(C)CCN(C)CC3)c(F)c2)C1O (stereo not shown) [Example 1006],
2,CCCCC1(CCCC)CS(=O)(=O)c2c(OC)cc(N(C)C)cc2C(c2ccc(OC)cc2)C1O (stereo not shown) [Example 1014],
0.4,CCCCC1(CCCC)CS(=O)(=O)c2ccc(N(C)C)cc2C(c2cccc(NC(=O)CCCC[N+](CC)(CC)CC)c2)C1O (stereo not shown) [Example 1005],
10,CCCCC1(CCCC)CS(=O)(=O)c2ccc(N(C)C)cc2C(c2cccc(OCCOCCOCC[n+]3ccc(C4CC=CCC4)cc3)c2)C1O (stereo not shown) [Example 1121],
2.2,CCCCC1(CCCC)CS(=O)(=O)c2ccc(N(C)C)cc2C(c2ccc(O)cc2)C1O (stereo not shown) [Example 1037],
4.5,"CCCCC1(CC)CS(=O)(=O)c2ccc(N(C)C)cc2C(c2ccc(O)cc2)C1O (single isomer, unassigned) [Example 1078]",
4.5,CCCCC1(CCCC)CS(=O)(=O)c2ccc(N(C)C)cc2C(c2cccc(CO)c2)C1O (stereo not shown) [Example 1077],
,CCCCC1(CCCC)CS(=O)(=O)c2ccc(N(C)C)cc2C(c2ccc(CC(=O)N(C)CN(C)C)c(F)c2)C1O (stereo not shown) [Example 1280],IC50 (Human TC IC50): 760 nM
,"CCC1CS(=O)(=O)c2ccccc2[C@@]2(c3ccccc3)O[C@@H]12 (stereo partly drawn) [Example 13, (1aα,2α,8bα) 2-Ethyl-8b-phenyl-1a,2,3,8b-tetrahydro-benzothiepino-[4,5-b] oxirene-4,4-dioxide]","inhibition at 100 µM (100 uM, read-out: In vitro % Inhibition of TC Uptake @ 100 uM): 23%"
55,CCCCC1(CCCC)CS(=O)(=O)c2ccc(N(C)C)cc2C(c2ccc(OCCCCCCI)cc2)C1O (stereo not shown) [Example 1281],
39,CCCCC1(CCCC)CS(=O)(=O)c2ccc(C)cc2C(c2ccc(F)cc2)C1O (stereo not shown) [Example 1155],
3,CCCCC1(CCCC)CS(=O)(=O)c2ccc(N(C)C)cc2C(c2cccc(OCCOCCOCC[n+]3ccnc4ccccc43)c2)C1O (stereo not shown) [Example 1041],
6,CCCCC1(CCCC)CS(=O)(=O)c2ccc(N(C)C)cc2C(c2cccc(NC(=O)CCBr)c2)C1O (stereo not shown) [Example 1097],

IC50 (read-out: Human TC IC50) [nM],Structure (SMILES),also measured
300,CCCC[C@]1(CC)CS(=O)(=O)c2cc(OCCOCCOCCI)ccc2[C@@H](c2ccccc2)[C@H]1O [Example 134],
60,CCCCC1(CCCC)CS(=O)(=O)c2ccc(OC)cc2C(c2ccncc2)C1O (stereo not shown) [Example 1158],
29,CCCCC1(CCCC)CS(=O)(=O)c2c(cccc2N(C)C)C(c2ccc(OC)cc2)C1O (stereo not shown) [Example 1145],
13,CCCCC1(CCCC)CS(=O)(=O)c2ccc(N(C)C)cc2C(c2ccc(OCc3cccc[n+]3C)c(F)c2)C1O (stereo not shown) [Example 1291],
5,CCCCC1(CC)CS(=O)(=O)c2ccc(N(C)C)cc2C(c2cccc(OCCOCCOCC[N+](C)(C)CCCCCC[N+](C)(C)CCOCCOCCOc3cccc(C4c5cc(N(C)C)ccc5S(=O)(=O)CC(CC)(CCCC)C4O)c3)c2)C1O (stereo not shown) [Example 1079],
700,"CCCCC1(CC)CS(=O)(=O)c2ccc(OC)cc2C(c2cccc(OC)c2)C1O (single isomer, unassigned) [Example 263]",
2,CCCCC1(CCCC)CS(=O)(=O)c2ccc(N(C)C)cc2C(c2cccc(OCCOCCOCC[N+]3(CCO)CCOCC3)c2)C1O (stereo not shown) [Example 1021],
35,"CCCCC1(CC)CS(=O)(=O)c2ccc(N)cc2C(c2ccc(F)cc2)C1O (single isomer, unassigned) [Example 129]",
35,CCCCC1(CCCC)CS(=O)(=O)c2ccc(N(C)C)cc2C(c2ccc(OCCCCCCCCCC[N+](CC)(CC)CC)cc2)C1O (stereo not shown) [Example 1268],
4,CCCCC1(CCCC)CS(=O)(=O)c2ccc(N(C)C)cc2C(c2cccc(OCCOCCOCC[n+]3ccc(CO)cc3)c2)C1O (stereo not shown) [Example 1072],
18,CCCCC1(CCCC)CS(=O)(=O)c2ccc(N(C)C)cc2C(c2cccc(CBr)c2)C1O (stereo not shown) [Example 1246],
4,CCCCC1(CCCC)CS(=O)(=O)c2ccc(N(C)C)cc2C(c2cccc(OCCOCCOCC[n+]3cccn3-c3ccccc3)c2)C1O (stereo not shown) [Example 1361],
2000,"CCCCC1(CC)CS(=O)(=O)c2ccc(OC)cc2C(c2cccc(C(F)(F)F)c2)C1O (single isomer, unassigned) [Example 265]",
630,CCCCC1(CCCC)CS(=O)(=O)c2ccc(N(C)C)cc2C(c2ccc(O)c(C[N+](C)(C)C)c2)C1O (stereo not shown) [Example 1243],
8,CCCCC1(CCCC)CS(=O)(=O)c2ccc(N(C)C)cc2C(c2ccc(OCCC[n+]3ccc(CCC(=O)O)cc3)c(F)c2)C1O (stereo not shown) [Example 1111],
12,CCCCC1(CC)CS(=O)(=O)c2ccc(N(C)C)cc2C(c2cccc(O)c2)C1O (stereo not shown) [Example 1260],
150,CCCCC1(CCCC)CS(=O)(=O)c2ccc(N(C)C)cc2C(c2cccc(C[N+](C)(C)CCN(C)C)c2)C1O (stereo not shown) [Example 1233],
40000,CCCCC1(CCCC)CS(=O)(=O)c2ccc(OC)cc2C(c2ccc([N+](C)(C)C)cc2)C1O (stereo not shown) [Example 1202],
